# Reference: PubChem BioAssay (NCI)
#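 GI50 is the concentration that inhibits growth by half. TGI: concentration producing complete growth inhibition.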
# Experiments:
# Test in all cases: NCI-60 cell line screen, 384-well format
# SW-620 colon = tested on: SW-620 colon
# SNB-19 CNS = tested on: SNB-19 CNS
# TK-10 renal = tested on: TK-10 renal
# LOX IMVI melanoma = tested on: LOX IMVI melanoma
# SR leukemia = tested on: SR leukemia
# T-47D breast = tested on: T-47D breast
# 786-0 renal = tested on: 786-0 renal
# A498 renal = tested on: A498 renal
# MOLT-4 leukemia = tested on: MOLT-4 leukemia
# NCI-H226 lung = tested on: NCI-H226 lung
# OVCAR-4 ovarian = tested on: OVCAR-4 ovarian
# SF-539 CNS = tested on: SF-539 CNS
# PC-3 prostate = tested on: PC-3 prostate
smiles,measurement,setting,value
CC(C)(O)CNc1nc(Nc2ccnc(C(F)(F)F)c2)nc(-c2cccc(C(F)(F)F)n2)n1,GI50,SW-620 colon,24.4 µM
same,TGI,SW-620 colon,55.2 µM
same,GI50,SNB-19 CNS,32.3 µM
same,TGI,SNB-19 CNS,87.2 µM
same,GI50,TK-10 renal,19.8 µM
same,TGI,TK-10 renal,43.4 µM
same,GI50,LOX IMVI melanoma,10.7 µM
same,TGI,LOX IMVI melanoma,25.1 µM
same,GI50,SR leukemia,4.82 µM
same,TGI,SR leukemia,17.5 µM
same,GI50,T-47D breast,9.87 µM
same,TGI,T-47D breast,23 µM
same,GI50,786-0 renal,17.4 µM
same,TGI,786-0 renal,37.6 µM
same,GI50,A498 renal,19.9 µM
same,TGI,A498 renal,39.9 µM
same,GI50,MOLT-4 leukemia,13.7 µM
same,TGI,MOLT-4 leukemia,26.8 µM
same,GI50,NCI-H226 lung,16.2 µM
same,TGI,NCI-H226 lung,31.7 µM
same,GI50,OVCAR-4 ovarian,19.7 µM
same,TGI,OVCAR-4 ovarian,36.3 µM
same,GI50,SF-539 CNS,16.3 µM
same,TGI,SF-539 CNS,30.9 µM
same,GI50,PC-3 prostate,18.2 µM
same,TGI,PC-3 prostate,33.9 µM
